Test results published in publication PMC9569420 (Communications Biology, 2022).
Read-outs that look alike come from different tables or passages of the source.

Tests used:
PKG1a = biological target: T1, PKG1a (Homo sapiens, UniProt Q13976); assay: HotSpot kinase assay; type: biochemical; details: read-out: % Enzyme Activity (relative to DMSO controls)
T1 construct: purchased Reaction Biology Corporation

mTOR/FRAP1 = biological target: T2, mTOR/FRAP1 (Homo sapiens, UniProt P42345); assay: HotSpot kinase assay; type: biochemical; details: read-out: % Enzyme Activity (relative to DMSO controls)
T2 construct: purchased Reaction Biology Corporation

LYN = biological target: T3, LYN (Homo sapiens, UniProt P07948); assay: HotSpot kinase assay; type: biochemical; details: read-out: % Enzyme Activity (relative to DMSO controls)
T3 construct: purchased Reaction Biology Corporation
T3 sequence (P07948 whole entry): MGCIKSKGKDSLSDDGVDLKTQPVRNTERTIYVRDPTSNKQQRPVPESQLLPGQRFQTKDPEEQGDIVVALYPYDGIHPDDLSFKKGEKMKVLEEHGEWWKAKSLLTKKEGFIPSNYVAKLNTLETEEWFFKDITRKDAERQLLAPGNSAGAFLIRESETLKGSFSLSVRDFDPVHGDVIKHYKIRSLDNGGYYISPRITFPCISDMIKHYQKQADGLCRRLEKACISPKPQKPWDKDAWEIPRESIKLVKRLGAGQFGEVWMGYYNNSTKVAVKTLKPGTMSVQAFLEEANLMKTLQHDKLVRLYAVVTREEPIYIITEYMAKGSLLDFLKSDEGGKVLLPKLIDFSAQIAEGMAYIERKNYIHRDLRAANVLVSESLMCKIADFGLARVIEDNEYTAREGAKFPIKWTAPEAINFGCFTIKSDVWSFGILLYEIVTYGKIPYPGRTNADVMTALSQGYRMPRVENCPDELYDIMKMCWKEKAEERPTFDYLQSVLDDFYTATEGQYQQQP

ALK6/BMPR1B = biological target: T4, ALK6/BMPR1B (Homo sapiens, UniProt O00238); assay: HotSpot kinase assay; type: biochemical; details: read-out: % Enzyme Activity (relative to DMSO controls)
T4 construct: purchased Reaction Biology Corporation

SRMS = biological target: T5, SRMS (Homo sapiens, UniProt Q9H3Y6); assay: HotSpot kinase assay; type: biochemical; details: read-out: % Enzyme Activity (relative to DMSO controls)
T5 construct: purchased Reaction Biology Corporation

MAST3 = biological target: T6, MAST3 (Homo sapiens, UniProt O60307); assay: HotSpot kinase assay; type: biochemical; details: read-out: % Enzyme Activity (relative to DMSO controls)
T6 construct: purchased Reaction Biology Corporation

ERBB4/HER4 = biological target: T7, ERBB4/HER4 (Homo sapiens, UniProt Q15303); assay: HotSpot kinase assay; type: biochemical; details: read-out: % Enzyme Activity (relative to DMSO controls)
T7 construct: purchased Reaction Biology Corporation

MEK3 = biological target: T8, MEK3 (Homo sapiens, UniProt P46734); assay: HotSpot kinase assay; type: biochemical; details: read-out: % Enzyme Activity (relative to DMSO controls)
T8 construct: purchased Reaction Biology Corporation
T8 sequence (P46734 whole entry): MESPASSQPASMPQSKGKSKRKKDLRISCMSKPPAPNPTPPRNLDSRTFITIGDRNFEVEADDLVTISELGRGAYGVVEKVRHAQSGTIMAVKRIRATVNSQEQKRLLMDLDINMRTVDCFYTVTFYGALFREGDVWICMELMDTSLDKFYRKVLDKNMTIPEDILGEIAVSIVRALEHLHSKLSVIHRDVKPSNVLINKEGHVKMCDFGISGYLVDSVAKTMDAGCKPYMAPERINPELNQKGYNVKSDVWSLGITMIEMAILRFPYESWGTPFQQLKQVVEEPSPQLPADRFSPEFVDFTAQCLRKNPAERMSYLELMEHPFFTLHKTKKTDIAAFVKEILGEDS

CAMK2d = biological target: T9, CAMK2d (Homo sapiens, UniProt Q13557); assay: HotSpot kinase assay; type: biochemical; details: read-out: % Enzyme Activity (relative to DMSO controls)
T9 construct: purchased Reaction Biology Corporation

PRKX = biological target: T10, PRKX (Homo sapiens, UniProt P51817); assay: HotSpot kinase assay; type: biochemical; details: read-out: % Enzyme Activity (relative to DMSO controls)
T10 construct: purchased Reaction Biology Corporation

PDGFRb = biological target: T11, PDGFRb (Homo sapiens, UniProt P09619); assay: HotSpot kinase assay; type: biochemical; details: read-out: % Enzyme Activity (relative to DMSO controls)
T11 construct: purchased Reaction Biology Corporation

PLK4/SAK = biological target: T12, PLK4/SAK (Homo sapiens, UniProt O00444); assay: HotSpot kinase assay; type: biochemical; details: read-out: % Enzyme Activity (relative to DMSO controls)
T12 construct: purchased Reaction Biology Corporation

PHKg1 = biological target: T13, PHKg1 (Homo sapiens, UniProt Q16816); assay: HotSpot kinase assay; type: biochemical; details: read-out: % Enzyme Activity (relative to DMSO controls)
T13 construct: purchased Reaction Biology Corporation
T13 sequence (Q16816 whole entry): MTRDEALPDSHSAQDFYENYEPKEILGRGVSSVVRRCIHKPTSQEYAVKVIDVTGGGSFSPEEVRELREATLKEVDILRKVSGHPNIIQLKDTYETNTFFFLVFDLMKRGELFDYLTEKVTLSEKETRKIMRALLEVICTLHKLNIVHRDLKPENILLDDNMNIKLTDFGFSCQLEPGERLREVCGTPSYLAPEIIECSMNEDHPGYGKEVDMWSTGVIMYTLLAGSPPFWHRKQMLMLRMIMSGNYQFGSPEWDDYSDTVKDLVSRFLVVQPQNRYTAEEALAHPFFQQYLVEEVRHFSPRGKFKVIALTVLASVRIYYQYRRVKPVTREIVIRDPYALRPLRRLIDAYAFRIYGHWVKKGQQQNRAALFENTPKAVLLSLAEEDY

TLK2 = biological target: T14, TLK2 (Homo sapiens, UniProt Q86UE8); assay: HotSpot kinase assay; type: biochemical; details: read-out: % Enzyme Activity (relative to DMSO controls)
T14 construct: purchased Reaction Biology Corporation

IRR/INSRR = biological target: T15, IRR/INSRR (Homo sapiens, UniProt P14616); assay: HotSpot kinase assay; type: biochemical; details: read-out: % Enzyme Activity (relative to DMSO controls)
T15 construct: purchased Reaction Biology Corporation

EPHA5 = biological target: T16, EPHA5 (Homo sapiens, UniProt P54756); assay: HotSpot kinase assay; type: biochemical; details: read-out: % Enzyme Activity (relative to DMSO controls)
T16 construct: purchased Reaction Biology Corporation

MYLK3 = biological target: T17, MYLK3 (Homo sapiens, UniProt Q32MK0); assay: HotSpot kinase assay; type: biochemical; details: read-out: % Enzyme Activity (relative to DMSO controls)
T17 construct: purchased Reaction Biology Corporation

PKCtheta = biological target: T18, PKCtheta (Homo sapiens, UniProt Q04759); assay: HotSpot kinase assay; type: biochemical; details: read-out: % Enzyme Activity (relative to DMSO controls)
T18 construct: purchased Reaction Biology Corporation

FYN = biological target: T19, FYN (Homo sapiens, UniProt P06241); assay: HotSpot kinase assay; type: biochemical; details: read-out: % Enzyme Activity (relative to DMSO controls)
T19 construct: purchased Reaction Biology Corporation

MELK = biological target: T20, MELK (Homo sapiens, UniProt Q14680); assay: HotSpot kinase assay; type: biochemical; details: read-out: % Enzyme Activity (relative to DMSO controls)
T20 construct: purchased Reaction Biology Corporation

CAMK1d = biological target: T21, CAMK1d (Homo sapiens, UniProt Q8IU85); assay: HotSpot kinase assay; type: biochemical; details: read-out: % Enzyme Activity (relative to DMSO controls)
T21 construct: purchased Reaction Biology Corporation

PAK4 = biological target: T22, PAK4 (Homo sapiens, UniProt O96013); assay: HotSpot kinase assay; type: biochemical; details: read-out: % Enzyme Activity (relative to DMSO controls)
T22 construct: purchased Reaction Biology Corporation

MST1/STK4 = biological target: T23, MST1/STK4 (Homo sapiens, UniProt Q13043); assay: HotSpot kinase assay; type: biochemical; details: read-out: % Enzyme Activity (relative to DMSO controls)
T23 construct: purchased Reaction Biology Corporation

CSK = biological target: T24, CSK (Homo sapiens, UniProt P41240); assay: HotSpot kinase assay; type: biochemical; details: read-out: % Enzyme Activity (relative to DMSO controls)
T24 construct: purchased Reaction Biology Corporation

MKK4 = biological target: T25, MKK4 (Homo sapiens, UniProt P45985); assay: HotSpot kinase assay; type: biochemical; details: read-out: % Enzyme Activity (relative to DMSO controls)
T25 construct: purchased Reaction Biology Corporation
T25 sequence (P45985 whole entry): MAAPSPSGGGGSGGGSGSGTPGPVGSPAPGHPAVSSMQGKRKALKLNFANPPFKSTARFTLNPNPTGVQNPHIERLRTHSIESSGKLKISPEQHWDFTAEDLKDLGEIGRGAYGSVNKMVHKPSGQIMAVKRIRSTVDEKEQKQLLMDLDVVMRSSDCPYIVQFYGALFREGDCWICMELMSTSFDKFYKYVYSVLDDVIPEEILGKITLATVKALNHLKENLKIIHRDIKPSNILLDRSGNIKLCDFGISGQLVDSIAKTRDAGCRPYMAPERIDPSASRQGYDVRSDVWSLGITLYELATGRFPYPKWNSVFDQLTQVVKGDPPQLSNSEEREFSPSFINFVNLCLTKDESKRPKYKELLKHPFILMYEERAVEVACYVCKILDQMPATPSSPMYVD

TAOK3/JIK = biological target: T26, TAOK3/JIK (Homo sapiens, UniProt Q9H2K8); assay: HotSpot kinase assay; type: biochemical; details: read-out: % Enzyme Activity (relative to DMSO controls)
T26 construct: purchased Reaction Biology Corporation

PKCmu/PRKD1 = biological target: T27, PKCmu/PRKD1 (Homo sapiens, UniProt Q15139); assay: HotSpot kinase assay; type: biochemical; details: read-out: % Enzyme Activity (relative to DMSO controls)
T27 construct: purchased Reaction Biology Corporation

NEK11 = biological target: T28, NEK11 (Homo sapiens, UniProt Q8NG66); assay: HotSpot kinase assay; type: biochemical; details: read-out: % Enzyme Activity (relative to DMSO controls)
T28 construct: purchased Reaction Biology Corporation

JAK3 = biological target: T29, JAK3 (Homo sapiens, UniProt P52333); assay: HotSpot kinase assay; type: biochemical; details: read-out: % Enzyme Activity (relative to DMSO controls)
T29 construct: purchased Reaction Biology Corporation
T29 sequence (P52333 whole entry): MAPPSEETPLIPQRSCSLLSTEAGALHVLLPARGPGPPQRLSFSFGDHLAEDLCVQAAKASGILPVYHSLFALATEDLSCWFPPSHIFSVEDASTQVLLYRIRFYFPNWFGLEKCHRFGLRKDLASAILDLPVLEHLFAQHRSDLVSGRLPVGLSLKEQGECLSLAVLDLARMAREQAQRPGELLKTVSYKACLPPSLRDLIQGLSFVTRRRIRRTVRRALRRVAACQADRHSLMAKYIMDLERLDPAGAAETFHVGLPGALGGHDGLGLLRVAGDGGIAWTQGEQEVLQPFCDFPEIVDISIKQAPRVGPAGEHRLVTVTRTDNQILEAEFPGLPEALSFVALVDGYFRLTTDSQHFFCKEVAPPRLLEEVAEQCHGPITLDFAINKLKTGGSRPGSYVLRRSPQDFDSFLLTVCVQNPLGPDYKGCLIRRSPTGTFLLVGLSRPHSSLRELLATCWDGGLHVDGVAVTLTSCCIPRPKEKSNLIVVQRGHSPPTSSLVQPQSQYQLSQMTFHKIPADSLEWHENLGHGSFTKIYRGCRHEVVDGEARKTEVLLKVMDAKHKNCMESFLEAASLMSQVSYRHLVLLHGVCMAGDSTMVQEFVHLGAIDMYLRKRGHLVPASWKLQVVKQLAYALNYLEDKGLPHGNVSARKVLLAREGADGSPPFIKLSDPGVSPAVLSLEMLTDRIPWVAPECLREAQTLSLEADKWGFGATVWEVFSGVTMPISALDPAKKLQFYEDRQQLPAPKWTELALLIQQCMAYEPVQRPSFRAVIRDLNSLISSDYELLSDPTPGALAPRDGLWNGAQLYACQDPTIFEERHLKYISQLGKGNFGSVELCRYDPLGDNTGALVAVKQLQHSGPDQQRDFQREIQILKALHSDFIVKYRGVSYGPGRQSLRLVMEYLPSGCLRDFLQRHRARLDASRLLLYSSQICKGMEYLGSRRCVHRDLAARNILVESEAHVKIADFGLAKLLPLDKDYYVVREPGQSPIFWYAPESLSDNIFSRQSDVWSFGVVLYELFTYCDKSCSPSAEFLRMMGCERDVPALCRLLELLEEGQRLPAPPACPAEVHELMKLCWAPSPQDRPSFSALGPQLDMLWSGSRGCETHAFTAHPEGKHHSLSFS

VSV-S [1] = type: cell-based, VSV pseudotyped with SARS-CoV-2 spike
KDR/VEGFR2 = biological target: T30, KDR/VEGFR2 (Homo sapiens, UniProt P35968); assay: HotSpot kinase assay; type: biochemical; details: read-out: % Enzyme Activity (relative to DMSO controls)
T30 construct: purchased Reaction Biology Corporation
T30 sequence (P35968 20-1356): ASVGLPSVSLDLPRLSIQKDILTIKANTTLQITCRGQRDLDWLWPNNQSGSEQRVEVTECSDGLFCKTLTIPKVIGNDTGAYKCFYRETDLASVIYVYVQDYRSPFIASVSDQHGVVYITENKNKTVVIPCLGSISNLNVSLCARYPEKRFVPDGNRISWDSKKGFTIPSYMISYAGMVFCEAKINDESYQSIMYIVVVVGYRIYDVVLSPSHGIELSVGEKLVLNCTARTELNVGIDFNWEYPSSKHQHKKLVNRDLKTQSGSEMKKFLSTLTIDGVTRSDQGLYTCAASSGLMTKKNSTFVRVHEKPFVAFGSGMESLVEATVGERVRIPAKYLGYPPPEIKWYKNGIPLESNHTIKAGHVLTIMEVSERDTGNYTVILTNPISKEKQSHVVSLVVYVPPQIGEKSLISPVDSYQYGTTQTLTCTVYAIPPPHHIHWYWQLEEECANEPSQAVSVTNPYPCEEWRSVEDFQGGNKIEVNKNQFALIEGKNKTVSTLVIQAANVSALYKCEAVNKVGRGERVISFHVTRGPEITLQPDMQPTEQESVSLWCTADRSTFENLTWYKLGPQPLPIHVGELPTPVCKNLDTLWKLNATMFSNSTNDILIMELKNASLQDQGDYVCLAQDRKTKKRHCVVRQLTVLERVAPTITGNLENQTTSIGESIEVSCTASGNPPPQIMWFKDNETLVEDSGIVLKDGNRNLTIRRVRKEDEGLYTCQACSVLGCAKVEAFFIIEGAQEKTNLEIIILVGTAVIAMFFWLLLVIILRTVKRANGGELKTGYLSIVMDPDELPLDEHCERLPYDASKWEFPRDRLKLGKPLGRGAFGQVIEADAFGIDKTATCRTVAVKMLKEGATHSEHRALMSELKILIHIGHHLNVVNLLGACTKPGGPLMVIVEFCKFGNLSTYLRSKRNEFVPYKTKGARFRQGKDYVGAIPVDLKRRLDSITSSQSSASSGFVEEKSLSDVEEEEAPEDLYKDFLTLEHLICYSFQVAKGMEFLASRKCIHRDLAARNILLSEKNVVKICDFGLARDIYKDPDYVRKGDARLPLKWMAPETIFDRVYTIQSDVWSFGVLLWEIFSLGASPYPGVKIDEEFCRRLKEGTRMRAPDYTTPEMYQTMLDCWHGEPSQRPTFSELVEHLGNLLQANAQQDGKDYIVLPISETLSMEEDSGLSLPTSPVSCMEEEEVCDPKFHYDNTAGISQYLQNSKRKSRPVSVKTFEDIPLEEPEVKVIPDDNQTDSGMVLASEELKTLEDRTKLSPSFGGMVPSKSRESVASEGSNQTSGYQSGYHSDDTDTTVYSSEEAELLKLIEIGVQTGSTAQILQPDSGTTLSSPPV

CK2a2 = biological target: T31, CK2a2 (Homo sapiens, UniProt P19784); assay: HotSpot kinase assay; type: biochemical; details: read-out: % Enzyme Activity (relative to DMSO controls)
T31 construct: purchased Reaction Biology Corporation

CDC7/DBF4 = biological target: T32, CDC7/DBF4 (Homo sapiens, UniProt O00311); assay: HotSpot kinase assay; type: biochemical; details: read-out: % Enzyme Activity (relative to DMSO controls)
T32 construct: purchased Reaction Biology Corporation

PKCb1 = biological target: T33, PKCb1 (Homo sapiens, UniProt P05771); assay: biochemical; details: read-out: % Enzyme Activity (relative to DMSO controls)
T33 construct: purchased Reaction Biology Corporation

BMPR2 = biological target: T34, BMPR2 (Homo sapiens, UniProt Q13873); assay: HotSpot kinase assay; type: biochemical; details: read-out: % Enzyme Activity (relative to DMSO controls)
T34 construct: purchased Reaction Biology Corporation

JNK1 = biological target: T35, JNK1 (Homo sapiens, UniProt P45983); assay: HotSpot kinase assay; type: biochemical; details: read-out: % Enzyme Activity (relative to DMSO controls)
T35 construct: purchased Reaction Biology Corporation

OSR1/OXSR1 = biological target: T36, OSR1/OXSR1 (Homo sapiens, UniProt O95747); assay: HotSpot kinase assay; type: biochemical; details: read-out: % Enzyme Activity (relative to DMSO controls)
T36 construct: purchased Reaction Biology Corporation

GRK3 = biological target: T37, GRK3 (Homo sapiens, UniProt P35626); assay: HotSpot kinase assay; type: biochemical; details: read-out: % Enzyme Activity (relative to DMSO controls)
T37 construct: purchased Reaction Biology Corporation

CDK2/cyclin E2 = biological target: T38, CDK2/cyclin E2 (Homo sapiens, UniProt P24941); assay: HotSpot kinase assay; type: biochemical; details: read-out: % Enzyme Activity (relative to DMSO controls)
T38 construct: purchased Reaction Biology Corporation

CDK9/cyclin T1 = biological target: T39, CDK9/cyclin T1 (Homo sapiens, UniProt P50750); assay: HotSpot kinase assay; type: biochemical; details: read-out: % Enzyme Activity (relative to DMSO controls)
T39 construct: purchased Reaction Biology Corporation

PKAcg = biological target: T40, PKAcg (Homo sapiens, UniProt P22612); assay: HotSpot kinase assay; type: biochemical; details: read-out: % Enzyme Activity (relative to DMSO controls)
T40 construct: purchased Reaction Biology Corporation

BRAF = biological target: T41, BRAF (Homo sapiens, UniProt P15056); assay: HotSpot kinase assay; type: biochemical; details: read-out: % Enzyme Activity (relative to DMSO controls)
T41 construct: purchased Reaction Biology Corporation
T41 sequence (P15056 whole entry): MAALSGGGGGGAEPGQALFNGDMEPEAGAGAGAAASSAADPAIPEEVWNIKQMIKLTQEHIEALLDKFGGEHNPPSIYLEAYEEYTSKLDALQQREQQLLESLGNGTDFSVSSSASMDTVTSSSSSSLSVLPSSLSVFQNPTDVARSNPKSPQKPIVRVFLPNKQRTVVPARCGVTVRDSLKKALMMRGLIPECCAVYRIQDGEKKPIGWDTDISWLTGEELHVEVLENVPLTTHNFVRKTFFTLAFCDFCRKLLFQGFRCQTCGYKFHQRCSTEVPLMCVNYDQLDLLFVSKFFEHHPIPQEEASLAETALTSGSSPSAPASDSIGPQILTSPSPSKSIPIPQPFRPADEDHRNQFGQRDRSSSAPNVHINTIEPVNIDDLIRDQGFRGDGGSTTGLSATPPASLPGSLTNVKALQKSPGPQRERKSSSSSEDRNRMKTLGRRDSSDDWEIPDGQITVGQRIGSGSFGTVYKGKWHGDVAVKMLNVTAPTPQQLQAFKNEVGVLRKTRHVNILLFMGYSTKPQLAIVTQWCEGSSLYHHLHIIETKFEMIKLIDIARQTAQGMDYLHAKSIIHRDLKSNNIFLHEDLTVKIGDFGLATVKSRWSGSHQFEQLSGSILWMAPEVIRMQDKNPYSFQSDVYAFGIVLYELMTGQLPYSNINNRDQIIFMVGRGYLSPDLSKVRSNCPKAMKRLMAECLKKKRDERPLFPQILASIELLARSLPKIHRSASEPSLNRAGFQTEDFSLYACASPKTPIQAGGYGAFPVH

VSV-S [2] = type: cell-based, VSV pseudotyped with SARS-CoV-2 spike; remark: listed apart in the source
IKKe/IKBKE = biological target: T42, IKKe/IKBKE (Homo sapiens, UniProt Q14164); assay: HotSpot kinase assay; type: biochemical; details: read-out: % Enzyme Activity (relative to DMSO controls)
T42 construct: purchased Reaction Biology Corporation

`CO[C@@H]1[C@H](N(C)C(=O)CCC(=O)NCc2cn(CCCS(=O)(=O)O)nn2)C[C@H]2O[C@]1(C)n1c3ccccc3c3c4c(c5c6ccccc6n2c5c31)C(=O)NC4` [CIMSS] gave a remaining activity at 10 µM (PKG1a) of 7.02%, a remaining activity at 10 µM (mTOR/FRAP1) of 112% and a remaining activity at 10 µM (LYN) of 2.5%. The remaining activity at 10 µM (ALK6/BMPR1B) was 88.3%, the remaining activity at 10 µM (SRMS) was 91% and the remaining activity at 10 µM (MAST3) was 106%. For the same compound, the remaining activity at 10 µM (ERBB4/HER4) was 25%, the remaining activity at 10 µM (MEK3) was 49.3% and the remaining activity at 10 µM (CAMK2d) was 1.33%. For the same compound, the remaining activity at 10 µM (PRKX) was 9.56%, the remaining activity at 10 µM (PDGFRb) was 1.9% and the remaining activity at 10 µM (PLK4/SAK) was 6.73%. The remaining activity at 10 µM (PHKg1) was 3.74%, the remaining activity at 10 µM (TLK2) was 67% and the remaining activity at 10 µM (IRR/INSRR) was 4.68%. For the same compound, the remaining activity at 10 µM (EPHA5) was 52.7%, the remaining activity at 10 µM (MYLK3) was 67.6% and the remaining activity at 10 µM (PKCtheta) was 7.08%. The remaining activity at 10 µM (FYN) was 2.59%, the remaining activity at 10 µM (MELK) was 1.43% and the remaining activity at 10 µM (CAMK1d) was 20.3%. For the same compound, the remaining activity at 10 µM (PAK4) was 7.78%, the remaining activity at 10 µM (MST1/STK4) was 4.33% and the remaining activity at 10 µM (CSK) was 2.41%. The remaining activity at 10 µM (MKK4) was 99%, the remaining activity at 10 µM (TAOK3/JIK) was 12.8% and the remaining activity at 10 µM (PKCmu/PRKD1) was 30.3%. For the same compound, the remaining activity at 10 µM (NEK11) was 52%, the remaining activity at 10 µM (JAK3) was 0.97% and the VSV-S infection (VSV-S [1]) was “inhibited”. It also gave a remaining activity at 10 µM (KDR/VEGFR2) of 7.22%, a remaining activity at 10 µM (CK2a2) of 44.6% and a remaining activity at 10 µM (CDC7/DBF4) of 3.98%. The remaining activity at 10 µM (PKCb1) was 2.83%, the remaining activity at 10 µM (BMPR2) was 50.4% and the remaining activity at 10 µM (JNK1) was 24.8%. It also gave a remaining activity at 10 µM (OSR1/OXSR1) of 54.2%, a remaining activity at 10 µM (GRK3) of 46.9% and a remaining activity at 10 µM (CDK2/cyclin E2) of 11.8%. It also gave a remaining activity at 10 µM (CDK9/cyclin T1) of 13.1%, a remaining activity at 10 µM (PKAcg) of 2.07% and a remaining activity at 10 µM (BRAF) of 132%. The VSV-S infection (VSV-S [2]) was “inhibited” and the remaining activity at 10 µM (IKKe/IKBKE) was 1.47%.
